Source: patent US7691601B2, “Medium for detecting and/or identifying of microorganisms” (priority 2003, dated 2010)

Columns and labels:
[1] = test system: free α-glucosidase in a sample (stools); experiment: Coloration at the point of deposit of the stool, castanospermine medium; type: biochemical; parameters: key to Deposit coloration: 0=no coloration; 0.5=trace of coloration; 1=weak coloration; 2=strong coloration; conditions: for Deposit coloration: Table 6
Procedure: (§1) Seeding of Salmonella bacteria: 10 μl of stools are deposited onto a Petri dish, this stool suspension is mixed or not mixed with 10 μl of a suspension of Salmonella (0.5 McF) and isolated as 3 dials on a Petri dish. Various […] and various Salmonella strains originating from the applicant's collection are used according to this protocol. The Petri dishes are incubated at 37° C. for 24 hours. The appearance of a coloration at the point of deposit of the stool (“deposit” column) and at the Salmonella colony (“colony” column) is read according to a semi-quantitative scale: • 0=no coloration • 0.5=trace of coloration • 1=weak coloration • 2=strong coloration The results obtained are given in Table 1.
(§2) Preparation of the detection medium: 250 ml of the medium of Example 1, in which the O,O-diethyl p-nitrophenyl phosphate is replaced with various concentrations of castanospermine: 0, 1, 2, 4 and 8 g/l, are prepared according to the method of Example 1.
(§3) The various detection media thus obtained are poured into Petri dishes.
(§4) Seeding of Staphylococcus aureus strains: The Petri dishes are inoculated, incubated and read as in Example 1.

[2] = test system: Staphylococcus aureus strains; experiment: Coloration of Staphylococcus aureus colonies, castanospermine medium; type: cell-based; parameters: key to Colonies coloration: 0=no coloration; 0.5=trace of coloration; 1=weak coloration; 2=strong coloration; conditions: for Colonies coloration: Table 6
Procedure: as §1, §2, §3, §4

[3] = Colonies column read for stool without added strain, castanospermine medium; parameters: key: 0=no coloration; 0.5=trace of coloration; 1=weak coloration; 2=strong coloration; conditions: Table 6, no strain
Procedure: as §1, §2, §3, §4

[4] = 1 g/l, stool A, Staphylococcus aureus No. 1
[5] = 1 g/l, stool B, Staphylococcus aureus no 2
[6] = 2 g/l, stool A, Staphylococcus aureus No. 1
[7] = 2 g/l, stool B, Staphylococcus aureus no 2
[8] = 4 g/l, stool A, Staphylococcus aureus No. 1
[9] = 4 g/l, stool B, Staphylococcus aureus no 2
[10] = 8 g/l, stool A, Staphylococcus aureus No. 1
[11] = 8 g/l, stool B, Staphylococcus aureus no 2

Which Deposit coloration [1, 4] does the source give for castanospermine here?
The Deposit coloration was 2.

What about the Deposit coloration ([1]; 1 g/l, stool A, no strain) of the same substance?
Its Deposit coloration is 1.

And the Deposit coloration [1, 5]?
The Deposit coloration was 2.

What about the Deposit coloration ([1]; 1 g/l, stool B, no strain) of the same substance?
The Deposit coloration was 0.5.

And the Deposit coloration [1, 6]?
Its Deposit coloration is 1.

And the Deposit coloration ([1]; 2 g/l, stool A, no strain)?
Its Deposit coloration is 1.

What about the Deposit coloration [1, 7] of the same substance?
Its Deposit coloration is 1.

What about the Deposit coloration ([1]; 2 g/l, stool B, no strain) of the same substance?
Its Deposit coloration is 0.5.

What about the Deposit coloration [1, 8] of the same substance?
Its Deposit coloration is 1.

What about the Deposit coloration ([1]; 4 g/l, stool A, no strain) of the same substance?
Its Deposit coloration is 0.5.

And the Deposit coloration [1, 9]?
Its Deposit coloration is 0.5.

What about the Deposit coloration ([1]; 4 g/l, stool B, no strain) of the same substance?
Its Deposit coloration is 0.

And the Deposit coloration [1, 10]?
The Deposit coloration was 1.

What about the Deposit coloration ([1]; 8 g/l, stool A, no strain) of the same substance?
The Deposit coloration was 0.

And the Deposit coloration [1, 11]?
Its Deposit coloration is 0.

And the Deposit coloration ([1]; 8 g/l, stool B, no strain)?
Its Deposit coloration is 0.

What about the “Aspecific enzymatic reactions due to the presence of free enzymes” value ([1]; stools, Staphylococcus aureus identification, summary in words) of the same substance?
The value was “greatly inhibited”.

What about the “Enzymes originating from the bacteria” value ([2]; Staphylococcus aureus colonies, summary in words) of the same substance?
The value was “not inhibited”.

What about the Colonies coloration [2, 4] of the same substance?
Its Colonies coloration is 2.

What about the Colonies coloration [2, 5] of the same substance?
The Colonies coloration was 2.

And the Colonies coloration [2, 6]?
Its Colonies coloration is 2.

What about the Colonies coloration [2, 7] of the same substance?
The Colonies coloration was 2.

What about the Colonies coloration [2, 8] of the same substance?
The Colonies coloration was 2.

What about the Colonies coloration [2, 9] of the same substance?
Its Colonies coloration is 2.

And the Colonies coloration [2, 10]?
Its Colonies coloration is 1.

And the Colonies coloration [2, 11]?
The Colonies coloration was 1.

What about the Colonies coloration ([3]; 1 g/l, stool A) of the same substance?
The Colonies coloration was 0.

And the Colonies coloration ([3]; 1 g/l, stool B)?
Its Colonies coloration is 0.

And the Colonies coloration ([3]; 2 g/l, stool A)?
The Colonies coloration was 0.

And the Colonies coloration ([3]; 2 g/l, stool B)?
The Colonies coloration was 0.

And the Colonies coloration ([3]; 4 g/l, stool A)?
The Colonies coloration was 0.

And the Colonies coloration ([3]; 4 g/l, stool B)?
Its Colonies coloration is 0.

What about the Colonies coloration ([3]; 8 g/l, stool A) of the same substance?
The Colonies coloration was 0.

What about the Colonies coloration ([3]; 8 g/l, stool B) of the same substance?
The Colonies coloration was 0.
